Key:
Format in all cases: cell-based
[1] = molecular target: EP4 subtype of the human PGE2 receptor (Homo sapiens, UniProt P35408); assay: cAMP antagonism test on the human EP4 receptor (HTRF cAMP detection); details: selectivity towards hEP4, IC50 measured by cAMP antagonism test
How it was run: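 Competitive HTRF cAMP read-out (cAMP-d2 vs Eu-cryptate anti-cAMP antibody, 665/620 nm ratio) on lysed human EP4 cells. Compound (0.8 nM–16.5 μM) applied 20 min at RT before 60 min PGE2 challenge (3× solution 0.3 nM, IBMX present); 20 min lysis precedes reading.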

[2] = molecular target: EP2 subtype of the human PGE2 receptor (Homo sapiens, UniProt P43116); assay: cAMP antagonism test on the human EP2 receptor (HTRF cAMP detection); details: hEP2 receptor, read-out: Antagonism hEP2 IC50
How it was run: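 Read-out is a competitive HTRF for cAMP: lysate cAMP displaces cAMP-d2 from Eu cryptate-labelled antibody, and antagonism raises the 665/620 nm ratio. Compound (0.8 nM–16.5 μM) added to EP2 cells 20 min at RT before 60 min PGE2 challenge (3× stock 1.5 nM) with IBMX, followed by 20 min lysis.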

human PGD receptor = molecular target: T1, human PGD receptor (Homo sapiens, UniProt Q13258); assay: cAMP antagonism test on the human prostaglandin D receptor (HTRF cAMP detection); details: selectivity towards hDP, IC50 measured by cAMP antagonism test
T1 sequence (Q13258 1-359): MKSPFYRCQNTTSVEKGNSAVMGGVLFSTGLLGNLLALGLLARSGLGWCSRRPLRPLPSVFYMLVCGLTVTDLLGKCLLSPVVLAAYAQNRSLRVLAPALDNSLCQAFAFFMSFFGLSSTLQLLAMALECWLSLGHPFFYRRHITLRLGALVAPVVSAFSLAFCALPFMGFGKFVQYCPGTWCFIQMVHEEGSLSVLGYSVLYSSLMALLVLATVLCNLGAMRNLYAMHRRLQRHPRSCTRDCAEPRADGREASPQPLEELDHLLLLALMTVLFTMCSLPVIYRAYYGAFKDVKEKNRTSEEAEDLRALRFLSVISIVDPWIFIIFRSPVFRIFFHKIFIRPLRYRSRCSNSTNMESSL
How it was run: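 HTRF competition read-out (665/620 nm ratio ×10000), where higher FRET means less cAMP, i.e. antagonism. Compounds (0.8 nM–16.5 μM) were preincubated 20 min at RT with cells and cAMP-d2, PGD2 (3× solution, 6 nM) in IBMX-containing PBS added for 30 min at RT, then cells lysed 20 min.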

Sequence of EP2 subtype of the human PGE2 receptor (P43116 whole entry): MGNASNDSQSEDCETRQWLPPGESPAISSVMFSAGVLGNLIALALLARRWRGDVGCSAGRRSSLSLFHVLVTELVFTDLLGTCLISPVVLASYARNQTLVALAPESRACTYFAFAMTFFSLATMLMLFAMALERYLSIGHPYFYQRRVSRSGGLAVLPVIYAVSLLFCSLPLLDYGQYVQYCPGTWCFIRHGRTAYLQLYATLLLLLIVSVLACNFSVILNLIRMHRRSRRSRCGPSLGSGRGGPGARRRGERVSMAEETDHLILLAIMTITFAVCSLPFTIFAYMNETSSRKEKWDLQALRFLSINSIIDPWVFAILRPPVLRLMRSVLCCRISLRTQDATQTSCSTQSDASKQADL
Sequence of EP4 subtype of the human PGE2 receptor (P35408 whole entry): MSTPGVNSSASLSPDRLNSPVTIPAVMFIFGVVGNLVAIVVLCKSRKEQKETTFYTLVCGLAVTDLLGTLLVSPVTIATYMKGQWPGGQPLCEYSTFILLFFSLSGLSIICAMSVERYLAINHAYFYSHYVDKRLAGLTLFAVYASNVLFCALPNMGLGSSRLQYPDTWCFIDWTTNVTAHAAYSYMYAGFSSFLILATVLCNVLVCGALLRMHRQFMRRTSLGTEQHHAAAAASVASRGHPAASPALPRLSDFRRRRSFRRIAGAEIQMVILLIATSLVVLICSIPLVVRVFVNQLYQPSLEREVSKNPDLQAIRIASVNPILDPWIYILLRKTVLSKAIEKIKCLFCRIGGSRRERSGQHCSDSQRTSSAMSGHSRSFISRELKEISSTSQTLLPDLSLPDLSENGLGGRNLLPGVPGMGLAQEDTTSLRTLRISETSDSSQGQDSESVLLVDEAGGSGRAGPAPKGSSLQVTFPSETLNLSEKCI

Selectivity hEP2/hEP4 [1] | IC50 [2] [nM] | Selectivity hEP2/hDP (human PGD receptor) | Structure (SMILES)
xxx (xxx > 100) | 17.7 | xxx (xxx > 100) | Cc1c(C(=O)NCCN2CCC(F)(F)C2)ccc2nn(CC3CCN(C(=O)c4ccc(S(F)(F)(F)(F)F)cc4)CC3)cc12 [Example 68, N-[2-(3,3-difluoropyrrolidin-1-yl)ethyl]-4-methyl-2-({1-[4-(pentafluoro-λ^6-sulphanyl)benzoyl]piperidin-4-yl}methyl)-2H-indazol-5-carboxamide]
xxx (xxx > 100) | 53.1 | xxx (xxx > 100) | COCCNC(=O)c1ccc2nn(CC3CCN(C(=O)c4ccc(Cl)c(C(F)(F)F)c4)CC3)cc2c1OC [Example 270, 2-({1-[4-chloro-3-(trifluoromethyl)benzoyl]piperidin-4-yl}methyl)-4-methoxy-N-(2-methoxyethyl)-2H-indazol-5-carboxamide]
xxx (xxx > 100) | 25.1 | xxx (xxx > 100) | Cc1c(C(=O)NCC2CCCCO2)ccc2nn(CC3CCN(C(=O)c4ccc(Cl)cc4)CC3)cc12 (single isomer, unassigned) [Example 240, (R or S)-2-{[1-(4-chlorobenzoyl)piperidin-4-yl]methyl}-4-methyl-N-(3,4,5,6-tetrahydro-2H-pyran-2-ylmethyl)-2H-indazol-5-carboxamide]
x (x: 1-10) | 2790 | x (x: 1-10) | Cc1c(C(=O)NCCN2CCOCC2)ccc2nn(CC3CCN(C(=O)c4cccc(C(F)(F)F)c4)CC3)cc12 [Example 65, 4-methyl-N-(2-morpholinoethyl)-2-({1-[3-(trifluoromethyl)benzoyl]piperidin-4-yl}methyl)-2H-indazol-5-carboxamide]
x (x: 1-10) | 3810 | x (x: 1-10) | Cc1c(C(=O)NCC(C)(C)C)ccc2nn(CC3CCN(C(=O)c4ccc(Cl)cc4)CC3)cc12 [Example 251, 2-{[1-(4-chlorobenzoyl)piperidin-4-yl]methyl}-N-(2,2-dimethylpropyl)-4-methyl-2H-indazol-5-carboxamide]
xxx (xxx > 100) | 5.7 | xxx (xxx > 100) | COCCNC(=O)c1ccc2nn(CC3CCN(C(=O)c4ccc(-c5ccccc5)c(C)c4)CC3)cc2c1C [Example 394, N-(2-methoxyethyl)-4-methyl-2-({1-[(2-methylbiphenyl-4-yl)carbonyl]piperidin-4-yl}methyl)-2H-indazol-5-carboxamide]
xx (xx: 10-100) | 285 | xx (xx: 10-100) | Cc1c(C(=O)NCC(C)OCC2CC2)ccc2nn(CC3CCN(C(=O)c4ccc(-c5ccc(F)cc5)cc4)CC3)cc12 (racemic) [Example 105, (+/−)-N-[2-(cyclo-propylmethoxy)-propyl]-2-({l-[(4′-fluorobiphenyl-4-yl)carbonyl]-piperidin-4-yl}-methyl)-4-methyl-2H-indazol-5-carboxamide]
xxx (xxx > 100) | 33.9 | xxx (xxx > 100) | COCCNC(=O)c1ccc2nn(CC3CCN(C(=O)c4cccc(Cl)c4)CC3)cc2c1C [Example 28, 2-{[1-(3-chloro-benzoyl)piperidin-4-yl]methyl}-N-(2-methoxyethyl)-4-methyl-2H-indazol-5-carboxamide]
xxx (xxx > 100) | 4.51 | xxx (xxx > 100) | COCCNC(=O)c1ccc2nn(CC3CCN(C(=O)c4ccc(-c5cc(F)cc(F)c5)cc4)CC3)cc2c1C [Example 389, 2-({1-[(3′,5′-difluorobiphenyl-4-yl)carbonyl]piperidin-4-yl}methyl)-N-(2-methoxyethyl)-4-methyl-2H-indazol-5-carboxamide]
xxx (xxx > 100) | 19.9 | xxx (xxx > 100) | COCCNC(=O)c1ccc2nn(CC3CCN(C(=O)c4nc5ccccc5o4)CC3)cc2c1C [Example 340, 2-{[1-(benzoxazol-2-ylcarbonyl)piperidin-4-yl]methyl}-N-(2-methoxyethyl)-4-methyl-2H-indazol-5-carboxamide]
xxx (xxx > 100) | 9.53 | xxx (xxx > 100) | Cc1c(C(=O)NCCOC(F)(F)F)ccc2nn(CC3CCN(C(=O)c4ccc(-c5ccc(F)cc5)cc4)CC3)cc12 [Example 109, 2-({1-[(4′-fluoro-biphenyl-4-yl)-carbonyl]piperidin-4-yl}-methyl)-4-methyl-N-[2-(trifluoro-methoxy)ethyl]-2H-indazol-5-carboxamide]
xxx (xxx > 100) | 5.47 | xxx (xxx > 100) | COCCNC(=O)c1ccc2nn(CC3CCN(C(=O)c4ccc(Br)c(C)c4)CC3)cc2c1C [Example 332, 2-{[1-(4-bromo-3-methylbenzoyl)piperidin-4-yl]methyl}-N-(2-methoxyethyl)-4-methyl-2H-indazol-5-carboxamide]
xxx (xxx > 100) | 7.88 | xxx (xxx > 100) | COCCNC(=O)c1ccc2nn(CC3CCN(C(=O)c4ccc(Oc5nccc(C(F)(F)F)n5)cc4)CC3)cc2c1C [Example 347, N-(2-methoxyethyl)-4-methyl-2-{[1-(4-{[4-(trifluoromethyl)pyrimidin-2-yl]-oxy}benzoyl)piperidin-4-yl]methyl}-2H-indazol-5-carboxamide]
xxx (xxx > 100) | 125 | xxx (xxx > 100) | Cc1cc2nn(CC3CCN(C(=O)c4ccc(C(F)(F)F)cc4)CC3)cc2cc1C(=O)NCCN1CCOCC1 [Example 79, 6-methyl-N-(2-morpholinoethyl)-2-({1-[4-(trifluoro-methyl)benzoyl]-piperidin-4-yl}-methyl)-2H-indazol-5-carboxamide]
xxx (xxx > 100) | 3.16 | xxx (xxx > 100) | COCCNC(=O)c1ccc2nn(CC3CN(C(=O)c4cc5cc(OC)ccc5n4C)C3)cc2c1C [Example 172, N-(2-methoxyethyl)-2-({1-[(5-methoxy-1-methyl-1H-indol-2-yl)carbonyl]azetidin-3-yl}methyl)-4-methyl-2H-indazol-5-carboxamide]
xxx (xxx > 100) | 103 | xxx (xxx > 100) | COCCNC(=O)c1ccc2nn(CC3CCN(C(=O)c4ccc(C#N)cc4F)CC3)cc2c1C [Example 1, 2-{[1-(4-cyano-2-fluorobenzoyl)piperidin-4-yl]methyl}-N-(2-methoxyethyl)-4-methyl-2H-indazol-5-carboxamide]
xxx (xxx > 100) | 44.2 | xxx (xxx > 100) | COCCNC(=O)c1ccc2nn(CC3CCN(C(=O)c4ccc(N5CCOCC5)cc4F)CC3)cc2c1C [Example 53, 2-{[1-(2-fluoro-4-morpholinobenzoyl)-piperidin-4-yl]-methyl}-N-(2-methoxyethyl)-4-methyl-2H-indazol-5-carboxamide]
xx (xx: 10-100) | 295 | xx (xx: 10-100) | Cc1c(C(=O)NCCO)ccc2nn(CC3CCN(C(=O)c4ccc(Cl)cc4)CC3)cc12 [Example 252, 2-{[1-(4-chlorobenzoyl)piperidin-4-yl]methyl}-N-(2-hydroxyethyl)-4-methyl-2H-indazol-5-carboxamide]
xxx (xxx > 100) | 28.1 | xxx (xxx > 100) | COCCNC(=O)c1ccc2nn(CC3CCN(C(=O)c4ccc(-n5cccn5)cc4)CC3)cc2c1C [Example 38, N-(2-methoxyethyl)-4-methyl-2-({1-[4-(1H-pyrazol-1-yl)-benzoyl]piperidin-4-yl}methyl)-2H-indazol-5-carboxamide]
xxx (xxx > 100) | 16.2 | xxx (xxx > 100) | Cc1c(C(=O)NCCOCC2CC2)ccc2nn(CC3CCN(C(=O)c4ccc(-c5ccc(F)cc5)cc4)CC3)cc12 [Example 88, N-[2-(cyclopropyl-methoxy)ethyl]-2-({1-[(4′-fluorobiphenyl-4-yl)carbonyl]piperidin-4-yl}methyl)-4-methyl-2H-indazol-5-carboxamide]

Structure (SMILES) | Selectivity hEP2/hEP4 [1] | IC50 [2] [nM] | Selectivity hEP2/hDP (human PGD receptor)
Cc1c(C(=O)NCCOC(C)(C)C)ccc2nn(CC3CCN(C(=O)c4ccc(Oc5ccc(F)cc5)cc4)CC3)cc12 [Example 112, N-(2-tert-butoxyethyl)-2-({1-[4-(4-fluoro-phenoxy)benzoyl]-piperidin-4-yl}methyl)-4-methyl-2H-indazol-5-carboxamide] | xxx (xxx > 100) | 11.9 | xxx (xxx > 100)
